Laboratory results published in patent US9345655B2, “Oral care compositions” (BRIGHAM YOUNG UNIVERSITY, priority 2011, dated 2016).

Key:
TNF-a = experiment: Anti-inflammatory activity, cytokine generation in HKPG-stimulated U937 macrophages; format: cell-based, Human; details: 0.1 ppm; U937 macrophages stimulated with heat killed P. gingivalis
Description: (§1) The anti-inflammatory activity of a compound of Formula (II) is studied against six human inflammatory cytokines, PGE2, IL-1B, IL-6, IL-8, TNF-a, and GM-CSF in separate sets of experiments; first against PGE2, then against the five other cytokines Human monocyte U937 cells are differentiated to macrophages and then generation of cytokines is induced by stimulating the cells using heat killed P. gingivalis (HKPG, 1×10^8 cells). Different types of inflammatory cytokines are generated by U973 cells and released into the supernatant.

IL-6 = experiment: as above; format: cell-based, Human; details: 0.1 ppm; U937 macrophages stimulated with heat killed P. gingivalis
Description: as §1

IL-1B = experiment: as above; format: cell-based, Human; details: 0.1 ppm; U937 macrophages stimulated with heat killed P. gingivalis
Description: as §1

bacterial culture = experiment: Minimum inhibitory concentration (MIC), serial 2-fold dilution in 96-well plate; format: cell-based; details: overnight incubation in TSB, inoculum 0.2 OD
Description: To evaluate minimum inhibitory concentrations (MICs), the concentration of the twenty four hour culture in log phase is adjusted by diluting in tryptic soy broth (TSB) so that an optical density of 0.2 at 610nm is obtained. The bacterial culture is then ready to be used for testing.
Three solutions are prepared: (1) 1% CPC solution in ethanol; (2) 1% solution of the Compound of Formula (II) in water; and (3) 0.5% of a Compound of Formula (II) +0.5% CPC. The solutions are diluted 1:9 in TSB. They are added to a 96-well plate and a serial dilution (2-fold) is made across the plate. The bacterial inoculum at 0.2 OD, 1000, is added to every well. The plate is incubated overnight and read on a plate reader the following day.

## CCCCCCCCNCCC[C@@H](C)[C@H]1CC[C@H]2C3[C@H](OCCCN)CC4C[C@H](OCCCN)CC[C@]4(C)[C@H]3C[C@H](OCCCN)[C@]12C (stereo partly shown) [Compound of Formula (II)]
TNF-a
  reduction of TNF-a: 80%
IL-6
  reduction of IL-6: 60%
IL-1B
  reduction of IL-10 (so in the source): 21%
Bacterial culture
  MIC: 0.49 µg/mL
